Experimental data taken from ChEMBL document CHEMBL5532712, “A Screening of 10,240 NatureBank Fractions Identifies Nematicidal Activity in Agelasine-Containing Extracts from Sponges” (J Nat Prod, 2024).

How the values were obtained:
Caenorhabditis elegans [1] = experiment: Nematicidal activity against Caenorhabditis elegans assessed as total paralysis at 100 to 200 uM relative to control; format: functional; settings: dose 100-200 µM
Caenorhabditis elegans [2] = experiment: Nematicidal activity against Caenorhabditis elegans assessed as reduction in larval motility; format: functional, organism-based
[3] = Toxicity in Zebrafish embryo assessed as reduction in viability at 50 uM measured after 24 hrs by microscope based analysis relative to control; parameters: species or system Danio rerio; settings: read-out: Activity
[4] = Toxicity in Zebrafish embryo assessed as reduction in viability at 100 uM measured after 24 hrs by microscope based analysis relative to control; parameters: species or system Danio rerio; settings: read-out: Activity

Row | SMILES | Activity (Caenorhabditis elegans [1]) [%] | IC50 (Caenorhabditis elegans [2]) [µM] | mortality at 24 h, 50 µM [3] [%] | mortality at 24 h, 100 µM [4] [%]
1 | CC1=CC(=O)C[C@@H]2[C@@](C)(CC/C(C)=C/C[n+]3cn(C)c4ncnc(N)c43)[C@H](C)CC[C@@]12C | 100 | 50 | 100 | 100
2 | CC1=CCC[C@@H]2[C@@](C)(CC/C(C)=C/Cn3c[n+](C)c4ncnc(N)c43)[C@H](C)CC[C@@]12C |  |  | 100 | 100
3 | C=CCCCCCCCCC[C@@H](O)[C@H](C)N [HALAMINOL A] |  |  | 100 | 66.6
